What was measured:
dopamine receptor = conditions: in vitro; cited from earlier work
exploratory behavior = assay: Inhibitory effect on exploratory behavior; assay type: in vivo, Male Std-Wistar rats; conditions: 500 mg/kg p.o., rat; for Inhibitory rate, exploratory behavior: one hour after administration
Experimental: Inhibitory effect on exploratory behavior
Male Std-Wistar rats weighing 150-200 g were used in groups of 5 animals. One hour after oral administration of test compounds suspended in 0.5% aqueous tragacanth solution, animals were individually placed in a test cage (23×35×30 cm) on an Animex activity meter (Farad Co., Sweden). Immediately thereafter, locomotor counting was started and lasted for three minutes. The mean value of the exploratory behavior (count/3 minutes) in the test compound-treated groups were determined, and then inhibitory effect of each test compound was calculated as compared with that of the control group (0.5% aqueous tragacanth solution-treated group). The results are shown in Table 5 along with the results of Experiments 4 and 5.

[1] = test system: bladder contractions induced by stimulation of the pelvic nerve, peripheral cut end; assay: Effect on the bladder contractions induced by stimulation of the pelvic nerve (peripheral cut end); assay type: in vivo, Male Std-Wistar rats; conditions: 5 mg/kg i.v. (jugular vein), mean±SEM; for Inhibitory rate on the contraction caused by the stimulation of the peripheral cut end, 10 min. / Inhibitory rate on the contraction caused by the stimulation of the peripheral cut end, 20 min.: * p<0.05
Excerpt: (§1) Effect on the bladder contractions induced by stimulation of the pelvic nerve
(§2) Male Std-Wistar rats weighing 250-350 g were used. Under urethane anesthesia (1 g/kg, i.p.), both ureters were tied and cut at the side of kidney after a mid line incision of the abdomen. When the peripheral end of the pelvic nerve was stimulated, one side of the pelvic nerve was cut. When the central cut end of the nerve was stimulated, one side of the pelvic nerve was cut like in the peripheral end stimulation after both the hypogastric nerves were cut. Then, the bladder was exposed, the cannula connected to a syringe and a pressure transducer was inserted into the bladder via a small incision at an apex of the dome, and the proximal urethra was then ligated. Fifteen minutes after the operation, warm saline solution of an amount (0.1-0.2 ml) being small enough not to cause rhythmic contraction was infused into the bladder using a syringe. The change of the intravesical pressure was recorded on a recorder via a pressure transducer. The pelvic nerve was stimulated at the peripheral cut end or the central one by a pair of platinum electrodes with pulse of 1 msec duration, 3 v strength and a frequency of 10 Hz (for peripheral) or 5 v strength and a frequency of 20 Hz (for central), for 5 seconds every 2 minutes. Test compounds dissolved in distilled water were injected at a dose of 5 mg/kg via the cannula inserted into the jugular vein.
(§3) Each value in the table is mean±standard error of mean in 3-4 animals.

[2] = test system: neurogenic bladder, unstable bladder, and nervous pollakisuria; conditions: Nishinihon J. Urol., 54, 1472 and 1820 (1992); cited from earlier work
[3] = test system: bladder contractions induced by stimulation of the pelvic nerve, central cut end; assay: Effect on the bladder contractions induced by stimulation of the pelvic nerve (central cut end); assay type: in vivo, Male Std-Wistar rats; conditions: for Inhibitory rate on the contraction caused by the stimulation of the central cut end, 2 min. / Inhibitory rate on the contraction caused by the stimulation of the central cut end, 4 min. / Inhibitory rate on the contraction caused by the stimulation of the central cut end, 10 min. / Inhibitory rate on the contraction caused by the stimulation of the central cut end, 20 min.: 5 mg/kg i.v. (jugular vein), mean±SEM; for Inhibitory rate on the contraction caused by the stimulation of the central cut end, 2 min.: * p<0.05; for Inhibitory rate on the contraction caused by the stimulation of the central cut end, 4 min. / Inhibitory rate on the contraction caused by the stimulation of the central cut end, 20 min.: * p<0.05, ** <0.01; for Inhibitory rate on the contraction caused by the stimulation of the central cut end, 10 min.: ** <0.01; for Effect on contractions by stimulation of central cut end compared with peripheral cut end: 5 mg/kg i.v., rat
Excerpt: as §1, §2, §3

[4] = test system: rhythmic bladder contractions (micturition reflex); assay: Inhibitory effect on rhythmic bladder contractions (micturition reflex); assay type: in vivo, Female Std-Wistar rats; conditions: i.d., rat; for ED50: 2 h, two hours, read-out: ED50, inhibitory effect on contractile frequency; for Potency on frequency of rhythmic bladder contractions relative to inaperisone hydrochloride (Compound A): compared with Compound A
Experimental: Inhibitory effect on rhythmic bladder contractions (micturition reflex)
The experiment was carried out according to the method of Maggi, C. […] It is generally accepted that the rhythmic bladder contractions evoked by instillation of saline solution into the bladder are mediated via the micturition reflex pathway like that of natural urination.
Female Std-Wistar rats weighing 160-190 g were used in groups of 3-4 animals. Under urethane anesthesia (1 g/kg, s.c.), both ureters were tied and cut at the side of kidney after a mid line incision of the abdomen. A cannula, connected to a syringe and a pressure transducer, was inserted into the bladder via the external urethral orifice and ligated around the proximal urethra. The animal was allowed to stay for about 30 minutes after the operation. The bladder was slowly filled with warm saline solution (0.4-1 ml) by means of a syringe until rhythmic contractions were induced. The change of the intravesical pressure was recorded on a recorder via a pressure transducer. After the rhythmic contractions became constant, test compounds dissolved or suspended in 0.5% aqueous tragacanth solution were administered via the cannula inserted for intraduodenal administration. The effect of each compound on the contractile frequency was investigated every 15 minutes till two hours after the administration.
The inhibitory rate on the contractile frequency (two hours) was expressed as the mean value of the inhibitory rates at an every 15-minute interval for two hours after the administration, which was determined based on the contractile frequency for 15 minutes before the administration.

[5] = test system: polysynaptic spinal reflex; assay: Inhibitory effect on polysynaptic spinal reflex; assay type: in vivo, Male Std-Wistar rats; conditions: rat; for ED50: iv, read-out: Inhibitory effect on polysynaptic spinal reflex, ID50; for Inhibitory effect on spinal reflex compared with Compound A: i.v.
Experimental: Inhibitory effect on polysynaptic spinal reflex
The experiment was performed according to the method of Itoh, et al. [Japan J. Parmacol.,23, 1125 (1982)]. Male Std-Wistar rats weighing 250-350 g were used in groups of 4-6 animals. Under anesthesia with combined i.p. injection of urethane (400 mg/kg) and α-chloralose (50 mg/kg), the rat fixed in a stereotaxic apparatus was clamped at the spine and tibial bane. A concentric needle electrode was inserted into the left gastrocnemius muscle, and the central end of the ipsilateral common peroneal nerve at the same side was supramaximally stimulated by an electrical stimulator (rectangular pulse,0.1 msec,0.1 Hz). Test compounds dissolved in distilled water were injected via a cannula inserted into the right femoral vein, and the evoked electromyogram was periodically recorded (2, 5, 10, 20 and 30 minutes after the injection). […] The results are shown in Table 5 along with the results of Experiments 3 and 5.

in vivo = conditions: in vivo, po; mouse; 7 days; read-out: Acute toxicity LD50
Excerpt: (§4) Male ddY mice weighing 18-25 g were used in groups of 5-15 animals. Test compounds suspended in 0.5% aqueous tragacanth solution were given orally, and the mortality was investigated for 7 days following administration.

Male ddY mice = assay: in vivo; conditions: p.o.; mouse
Excerpt: as §4

[6] = test system: rhythmic bladder contractions (micturition reflex); assay: Inhibitory effect on rhythmic bladder contractions (micturition reflex); assay type: in vivo, Female Std-Wistar rats; conditions: judged from Experiments 1, 3, 4 and 5

## C1=C(CCN2CCCCC2)CCc2ccccc21.Cl [1-[2-(3,4-dihydro-2-naphthalenyl)ethyl]piperidine hydrochloride]
Dopamine receptor
  Affinity for dopamine receptor: quite low affinity

## CCc1ccc(C(=O)C(C)CN2CCCC2)cc1.Cl (centres unmarked) [Compound A, 1-(4-ethylphenyl)-2-methyl-3-(1-pyrrolidinyl)-1-propanone hydrochloride, reference compound]
Exploratory behavior
  Inhibitory rate, exploratory behavior: 28.3%
[1]
  Inhibitory rate on the contraction caused by the stimulation of the peripheral cut end, 2 min.: 6.2 ± 5.1%
  Inhibitory rate on the contraction caused by the stimulation of the peripheral cut end, 4 min.: 14.7 ± 4.0%
  Inhibitory rate on the contraction caused by the stimulation of the peripheral cut end, 10 min.: 25.1 ± 4.2%
  Inhibitory rate on the contraction caused by the stimulation of the peripheral cut end, 20 min.: 31.6 ± 2.5%
[2]
  Efficacy for neurogenic bladder, unstable bladder, nervous pollakisuria: effective for the symptoms such as neurogenic bladder, unstable bladder, and nervous pollakisuria
[3]
  Inhibitory rate on the contraction caused by the stimulation of the central cut end, 2 min.: 21.0 ± 10.7%
  Inhibitory rate on the contraction caused by the stimulation of the central cut end, 4 min.: 22.5 ± 7.3%
  Inhibitory rate on the contraction caused by the stimulation of the central cut end, 10 min.: 29.3 ± 7.7%
  Inhibitory rate on the contraction caused by the stimulation of the central cut end, 20 min.: 40.6 ± 8.8%
[4]
  ED50: 34.8 mg/kg
[5]
  ED50: 4.22 mg/kg

## Fc1cccc2c1CCC(CCN1CCCC1)=C2 [Ex. 1, 1-[2-(5-fluoro-3,4-dihydro-2-naphthalenyl)ethyl]-pyrrolidine]
Exploratory behavior
  Inhibitory rate, exploratory behavior: 16.2%
  Inhibitory effect on exploratory behavior compared with Compound A: less potent than that of Compound A
In vivo
  LD50 at 168 h: 556 mg/kg
Male ddY mice
  Acute toxicity compared with Compound A: also lower than that of Compound A
[1]
  Inhibitory rate on the contraction caused by the stimulation of the peripheral cut end, 2 min.: 4.4 ± 4.4%
  Inhibitory rate on the contraction caused by the stimulation of the peripheral cut end, 4 min.: 3.4 ± 4.4%
  Inhibitory rate on the contraction caused by the stimulation of the peripheral cut end, 10 min.: 3.2 ± 7.5%
  Inhibitory rate on the contraction caused by the stimulation of the peripheral cut end, 20 min.: 9.6 ± 8.6%
[6]
  Separation of effect on micturition reflex from side effects (central depression, inhibition of spinal reflex) and toxicity, in comparison with Compound A: extremely separated from side effects
[3]
  Inhibitory rate on the contraction caused by the stimulation of the central cut end, 2 min.: 26.3 ± 10.0%
  Inhibitory rate on the contraction caused by the stimulation of the central cut end, 4 min.: 27.6 ± 5.6%
  Inhibitory rate on the contraction caused by the stimulation of the central cut end, 10 min.: 36.8 ± 10.1%
  Inhibitory rate on the contraction caused by the stimulation of the central cut end, 20 min.: 44.1 ± 5.8%
  Effect on contractions by stimulation of central cut end compared with peripheral cut end: more potent than those on the contractions induced by the stimulation of peripheral cut end
[4]
  ED50: 4.3 mg/kg
  Potency on frequency of rhythmic bladder contractions relative to inaperisone hydrochloride (Compound A): about 8 times more potent
[5]
  Inhibitory effect on spinal reflex compared with Compound A: much weaker than that of Compound A
  ED50: > 10 mg/kg

## Cc1cc2c(cc1C)CCC(CCN1CCCC1)=C2 [Ex. 2, 1-[2-(3,4-dihydro-6,7-dimethyl-2-naphthalenyl)ethyl]-pyrrolidine]
Exploratory behavior
  Inhibitory rate, exploratory behavior: 0%
  Inhibitory effect on exploratory behavior compared with Compound A: less potent than that of Compound A
In vivo
  LD50 at 168 h: 620 mg/kg
Male ddY mice
  Acute toxicity compared with Compound A: also lower than that of Compound A
[1]
  Inhibitory rate on the contraction caused by the stimulation of the peripheral cut end, 2 min.: 0.4 ± 5.2%
  Inhibitory rate on the contraction caused by the stimulation of the peripheral cut end, 4 min.: 16.3 ± 7.0%
  Inhibitory rate on the contraction caused by the stimulation of the peripheral cut end, 10 min.: 13.7 ± 4.5%
  Inhibitory rate on the contraction caused by the stimulation of the peripheral cut end, 20 min.: 19.0 ± 7.5%
[6]
  Separation of effect on micturition reflex from side effects (central depression, inhibition of spinal reflex) and toxicity, in comparison with Compound A: extremely separated from side effects
[3]
  Inhibitory rate on the contraction caused by the stimulation of the central cut end, 2 min.: 13.3 ± 5.1%
  Inhibitory rate on the contraction caused by the stimulation of the central cut end, 4 min.: 17.7 ± 2.8%
  Inhibitory rate on the contraction caused by the stimulation of the central cut end, 10 min.: 25.6 ± 3.7%
  Inhibitory rate on the contraction caused by the stimulation of the central cut end, 20 min.: 24.9 ± 4.1%
  Effect on contractions by stimulation of central cut end compared with peripheral cut end: more potent than those on the contractions induced by the stimulation of peripheral cut end
[4]
  ED50: 4.4 mg/kg
  Effect on the amplitude of contraction: suppressed the amplitude of contraction
  Potency on frequency of rhythmic bladder contractions relative to inaperisone hydrochloride (Compound A): about 8 times more potent
[5]
  Inhibitory effect on spinal reflex compared with Compound A: much weaker than that of Compound A
  ED50: > 8 mg/kg

## Cc1cc2c(cc1C)CCC(CCN1CCCCC1)=C2 [Ex. 43, 1-[2-(3,4-dihydro-6,7-dimethyl-2-naphthalenyl)ethyl]piperidine]
Exploratory behavior
  Inhibitory rate, exploratory behavior: 20.0%
  Inhibitory effect on exploratory behavior compared with Compound A: almost equal to that of Compound A
In vivo
  LD50 at 168 h: 1040 mg/kg
Male ddY mice
  Acute toxicity compared with Compound A: about twice lower than that of Compound A
[1]
  Inhibitory rate on the contraction caused by the stimulation of the peripheral cut end, 2 min.: 2.4 ± 3.3%
  Inhibitory rate on the contraction caused by the stimulation of the peripheral cut end, 4 min.: 5.8 ± 6.3%
  Inhibitory rate on the contraction caused by the stimulation of the peripheral cut end, 10 min.: 6.3 ± 8.1%
  Inhibitory rate on the contraction caused by the stimulation of the peripheral cut end, 20 min.: 17.2 ± 12.2%
[6]
  Separation of effect on micturition reflex from side effects (central depression, inhibition of spinal reflex) and toxicity, in comparison with Compound A: extremely separated from side effects
[3]
  Inhibitory rate on the contraction caused by the stimulation of the central cut end, 2 min.: 6.0 ± 10.8%
  Inhibitory rate on the contraction caused by the stimulation of the central cut end, 4 min.: 22.8 ± 9.7%
  Inhibitory rate on the contraction caused by the stimulation of the central cut end, 10 min.: 28.3 ± 4.0%
  Inhibitory rate on the contraction caused by the stimulation of the central cut end, 20 min.: 37.3 ± 5.0%
  Effect on contractions by stimulation of central cut end compared with peripheral cut end: more potent than those on the contractions induced by the stimulation of peripheral cut end
[4]
  ED50: 11.1 mg/kg
  Potency on frequency of rhythmic bladder contractions relative to inaperisone hydrochloride (Compound A): ~3 times more potent
[5]
  Inhibitory effect on spinal reflex compared with Compound A: nearly equal to that of Compound A
  ED50: 3.82 mg/kg

Source: patent US5847159A, “1-[ω-(3,4-dihydro-2-naphthalenyl)alkyl]-cyclic amine derivatives, process for preparing the same, and pharmaceutical composition containing the same” (priority 1995, dated 1998)
